pIC50: −log10 of the molar value.
Columns and labels:
hDGAT2 = experiment: Mouse model receiving hydrodynamic injection of DGAT2 plasmid via tail vein (Example 5, liver mRNA qPCR); type: in vivo; settings: 3mpk subcutaneously day 0, HDI day 14, BALB/c mice
Method: BALB/c mice, female, 6-7 weeks old.
pcDNA-DGAT2 plasmid, having a concentration of 2 µg/µL, diluted with physiological saline for later use.
The hydrodynamic injection scheme of DGAT2 plasmid DNA via tail vein, the administration and the sample collection method were as follows.
Treatment with compound: The day of administration to mice was defined as day 0, the day before it was day -1, the day after it was day 1, and so on. On day 0, the mice were injected subcutaneously with 5 mL/kg of the solvent or the test compound, at a dosage of 3mpk.
Hydrodynamic injection of DGAT2 plasmid DNA solution into mice via tail vein: On day 4 or 14, the plasmid DNA was prepared with normal saline before injection, and stored at 4°C until use. All mice were injected with the plasmid DNA solution in a volume of 8% of the body weight (injection volume (mL)= body weight of mice (g) x 8%) in 5 seconds via the tail vein, and the weight of plasmid injected into each mouse was 10 µg.
Endpoint of the experiment and collection of liver samples: On day 5 or 15, that is, 24 hrs after the hydrodynamic injection of DGAT2 plasmid via the tail vein, all mice were euthanized by CO2 inhalation. After euthanasia, blood samples were collected from the heart and liver samples were collected. 2 liver tissues of about 70 mg were immersed in RNAlater®, and incubated overnight at 4 °C. The supernatant was discarded and the remainder was transferred to a freezer at -80°C, for mRNA detection later.
RNA in the liver was extracted with Trizol. The method was briefly described as follows: 50-70 mg of liver tissue and 1.2 mL of Trizol were homogenized with Qiagen Tissue Lyser II at 26 Hz for 2 min and lyzed at room temperature for 5 min. 1 mL of the supernatant was taken, added to 200 uL of chloroform, vigorously shaken for 15 s, allowed to stand for 3 min, and centrifuged. The supernatant was collected, added with an equal volume of isopropanol, and stood overnight at -20°C for precipitation. The precipitate was washed twice with 70% , and dissolved in water without RNase. The concentration of the RNA sample was determined by Nanodrop ONE and diluted to 400 ng/uL with water without RNase for reverse transcription.
The experimental steps of reverse transcription could be made reference to the instruction of FastKing cDNA first strand synthesis kit (genome clean). Briefly, a gDNA removal mixture was prepared according to Table 6. The mixture (5 µL/sample) and 400 ng/µL RNA sample were added to a 96-well PCR reaction plate, incubated at 42°C for 3 min, and cooled on ice. A mixture for reverse transcription was prepared according to Table 7. The reverse transcription mixture (10 µL/sample) and the DNA removal product of the previous step were added to a 96-well PCR reaction plate, for reverse transcription. Reaction conditions: 42°C for 15 min; and 95°C for 3 min. The cDNA was stored at 4°C for further analysis. Table 6. Ingredients for gDNA-removal reaction
Reaction conditions: 95°C for 10 min; and 40 cycles of 95°C for 15 s, and 60°C for 1 min. Table 8. Ingredients for qPCR Reaction (DGAT2)
The expression of the target gene in each sample was analyzed by relative quantification using ΔΔCt method. In this method, the Ct difference (ΔCt) between the target gene (DGAT2) and the internal reference gene (Neo) was determined, and the ΔCt value of the sample treated with the compound was compared with that of the control group.
The formula is: ΔCt = average Ct value of target gene−average Ct value of reference gene. [formula] [formula]
Data analysis: The data are expressed as the average of each group of mouse samples ± standard error. Unless otherwise specified, n=4 or 5. Student's t test was used for statistical analysis. Table 10.1 Test for evaluating the in-vivo inhibitory activity of siRNA compounds on target gene DGAT2 in mice model receiving hDGAT2 HDI 5 days after administration

DGAT2 = experiment: In-vitro inhibitory activity test on target gene DGAT2 in Huh7 cells (siRNA transfection, mRNA by qPCR); type: cell-based, human; settings: Table 3.3
Method: The test compound was prepared into a 20 µM mother liquor with PBS.
Huh7 cells. Huh7 cells were cultured in DMEM medium (Gibco article number 11965-092) containing 10% fetal bovine serum (FBS, ExCell Bio article number FSP500), 1% glutamine (GlutaMAX, Gibco article number 35050061), 1% NEAA (gibco article number 11140050), and 1% penicillin-streptomycin (HyClone article number SV30010).
Huh7 cells (2 × 10^4 cells/well) were inoculated into a 96-well plate, and siRNA was transfected into the cells while plating. […] At the same time, a compound-free control group containing RNAiMAX was set up.
24 hrs after transfection, the medium was removed and the cells were collected for RNA extraction. Total RNA was extracted by using RNeasy® 96 Kit (QIAGEN-74182) according to the instructions for use of the kit. cDNA was synthesized by using FastKing RT Kit (with gDNase) (Tiangen-KR116-02) according to the instructions.
The target cDNA was detected by qPCR, and GAPDH cDNA as an internal control was detected in parallel. 8 µL of prepared PCR reaction solution and 2 µL of sample cDNA were added into a 384 well plate. […]
The expression level of the target gene mRNA in each sample was calculated by ΔΔCt relative quantitative method. […]
GraphPad Prism software was used for plotting and analysis, and the inhibition rate was expressed as mean ± SD.

With “dS319: sense (invAb)*acaccauaGfAfCfuauuugcuua[L96]; anti-sense Vpu*Af*a*GfcAfaauagUfcUfaUfgGfuGf* u” the “Average inhibition rate, % Day 1 after HDI (day 15 after administration)” value (hDGAT2) was 91.79% and the pIC50 (DGAT2) was 10.79.
